The values below come from PubChem BioAssay AID652144 (Broad Institute, 2013).

Inconclusive results are not listed. Active and inactive are the calls of the source. No rule for the calls is given here.

Test systems include HUVEC; SR; U-251; LOX-IMVI; HT-29; CCRF-CEM; SNB-75; HeLA; SNB-19; C2C12.
Common to all, as to assay: viability reduction measured by resazurin – cell-based, Alamar Blue fluorescence, multiple timepoints, mechanism study for HRAS target identification project, profiling panel (AID 652144)
Conditions in all cases: Cancer/normal cell panel viability, 8-48 h
For orientation: Resazurin is reduced to fluorescent resorufin, in cell work by metabolically active cells.

For the molecule `Cc1onc(C(=O)N2CCN(C(c3ccc(Cl)cc3)c3ccc(Cl)cc3)CC2)c1[N+](=O)[O-]`, the result in the test with HUVEC was inactive. Further, the concentration at half-maximal activity (AC50) with SR was 0.142 µM; in the test on U-251 it was > 70 µM (inactive); with LOX-IMVI, 0.103 µM; with HT-29, 0.963 µM; in the test on CCRF-CEM it was 0.144 µM; in the test on SNB-75, 0.687 µM.

`CCC(=O)N(c1ccc(OC)c(Cl)c1)C(C(=O)NCCc1ccccc1)c1cccs1` (centres undefined): the outcome in the test on U-251, in the test on LOX-IMVI and in the test with SNB-19 was inactive. The AC50 in the test on HT-29 and in the test on HeLA was > 70 µM (inactive) in each case.

Take `Cc1onc(C(=O)N2CCN(C(c3ccncc3)c3ccncc3)CC2)c1[N+](=O)[O-]`: the result with HUVEC, in the test on SR, in the test with U-251, in the test with LOX-IMVI, with HT-29 and with HeLA was inactive. Further, the result with SNB-19, in the test with CCRF-CEM, in the test on C2C12 and in the test with SNB-75 was inactive.

For `CC(C)(C)OC(=O)NCCOCCOCCOc1ccc(N(C(=O)CCl)C(C(=O)NCCc2ccccc2)c2cccs2)cc1Cl` (centres undefined), the AC50 with HUVEC is 13.7 µM; with SR, 0.0951 µM; in the test on U-251, 1.35 µM; in the test with LOX-IMVI, 0.0834 µM; in the test with HT-29, 0.457 µM; in the test with HeLA it was 0.65 µM. Besides, the AC50 in the test on SNB-19 is 1.72 µM; with CCRF-CEM it was 0.0865 µM; in the test on C2C12 it was 0.442 µM; in the test with SNB-75, 0.686 µM.

In the case of `COc1ccc(N(C(=O)CCl)C(C(=O)NCCc2ccccc2)c2cccs2)cc1Cl` (centres undefined), the AC50 with HUVEC was 8.94 µM; in the test on SR, 0.0618 µM; in the test on U-251 it was 0.896 µM; with LOX-IMVI, 0.0405 µM; in the test with HT-29 it was 0.162 µM; in the test on HeLA it was 0.547 µM. Moreover, the concentration at half-maximal activity (AC50) was 1.17 µM in the test with SNB-19, 0.0785 µM with CCRF-CEM, 0.842 µM with C2C12 and 0.286 µM in the test with SNB-75.

Regarding `COC(=O)c1ccc([C@@H]2c3[nH]c4ccccc4c3C[C@@H](C(=O)OC)N2C(=O)CCl)cc1`, the AC50 in the test on SR was 0.0329 µM; in the test on U-251, 1.06 µM; in the test on LOX-IMVI, 0.031 µM; in the test with HT-29, 0.177 µM; with HeLA, 0.573 µM; in the test on CCRF-CEM, 0.0502 µM. Further, the concentration at half-maximal activity (AC50) in the test on C2C12 is 0.101 µM; in the test on SNB-75, 0.355 µM.

Take `C#CCCCC(=O)NCCOCCOCCOc1ccc(N(C(=O)CCl)C(C(=O)NCCc2ccccc2)c2cccs2)cc1Cl` (centres undefined): the AC50 in the test with SR was 0.885 µM; in the test with U-251, 6.81 µM; in the test with LOX-IMVI it was 0.421 µM; in the test with HT-29, 2.86 µM; in the test on HeLA it was 4.49 µM; in the test on SNB-19, 4.45 µM. The figures for the AC50 in the test with CCRF-CEM, in the test on C2C12 and in the test with SNB-75 were 0.997 µM, 5.42 µM and 3.56 µM, respectively.

A word on the AC50: it is the concentration at which the activity in the assay is half-maximal.
